In the PolyMetriX glass transition set:

*c1ccc(-c2ccc(-c3ccc(-c4ccc(N(*)c5ccc(C)cc5)cc4)c4c(C)ccc(C)c34)c3c(C)ccc(C)c23)cc1 (repeat unit)
glass transition temperature: 148.00 °C

*c1ccc(C(C#N)(C(=O)OCC(C)C)C(*)(C#N)C(=O)OCC(C)C)cc1 (repeat unit)
glass transition temperature: 108.00 °C

*CC(*)C(=O)OCCOc1ccc(C(=O)Oc2ccc(OC(=O)c3ccc(OCCCC)cc3)cc2)cc1 (repeat unit)
glass transition temperature: 45.00 °C

*CCN(*)C(C)=O (repeat unit)
glass transition temperature: 80.00 °C

*CCN(CCOC(=O)c1cccc(C(=O)O*)c1)c1ccc(/N=N/c2ccc(-c3nc4ccc([N+](=O)[O-])cc4n3CC)cc2)cc1 (repeat unit)
glass transition temperature: 147.00 °C

*c1ccc2c(c1)C(=O)N(c1cccc(P(=O)(c3ccccc3)c3cccc(N4C(=O)c5ccc(C(*)(C(F)(F)F)C(F)(F)F)cc5C4=O)c3)c1)C2=O (repeat unit)
glass transition temperature: 271.00 °C

*CC(*)(C)C(=O)OCCn1c2ccccc2c2cc(/N=N/c3ccc([N+](=O)[O-])cc3[N+](=O)[O-])ccc21 (repeat unit)
glass transition temperature: 182.00 °C

*Oc1ccc(C(C)(C)c2cccc(C(C)(C)c3ccc(Oc4ccc(C(=O)Nc5cccc(NC(=O)c6ccc(*)cc6)c5)cc4)cc3)c2)cc1 (repeat unit)
glass transition temperature: 155.00 °C

*O[Si](C)(C)O[Si](C)(C)O[Si](C)(C)O[Si](C)(C)O[Si](C)(C)C#Cc1ccc(C#C[Si](*)(C)C)cc1 (repeat unit)
glass transition temperature: 78.00 °C

*CCCCOC(=O)c1ccc(-c2ccc(C(=O)O*)cc2)cc1 (repeat unit)
glass transition temperature: 70.00 °C

*c1ccc(Oc2ccc3ccccc3c2-c2c(Oc3ccc(N4C(=O)c5ccc(NC(=O)Nc6ccc(Oc7ccccc7-c7ccccc7Oc7ccc(NC(=O)Nc8ccc9c(c8)C(=O)N(*)C9=O)cc7)cc6)cc5C4=O)cc3)ccc3ccccc23)cc1 (repeat unit)
glass transition temperature: 285.00 °C

*c1ccc(C(=O)c2ccc(-n3c(=O)c4cc5c(=O)n(*)c(=O)c5cc4c3=O)cc2)cc1 (repeat unit)
glass transition temperature: 424.00 °C

*Oc1ccc(C2(c3ccc(OC(=O)c4cccc(C(*)=O)c4)c(C)c3)CCC3CCCCC3C2)cc1C (repeat unit)
glass transition temperature: 207.00 °C

*CC(CS(=O)(=O)C(C)C)O* (repeat unit)
glass transition temperature: 64.00 °C

*Oc1ccc(S(=O)(=O)c2ccc(Oc3c(C)cc(C(c4cc(C)c(*)c(C)c4)(C(F)(F)F)C(F)(F)F)cc3C)cc2)cc1 (repeat unit)
glass transition temperature: 248.00 °C

*O[Si](*)(C)CCCOc1ccc(C(=O)Oc2ccc(OCCCCCC)cc2)cc1 (repeat unit)
glass transition temperature: 15.00 °C

*OP(=O)(Oc1ccc(S(=O)(=O)c2ccc(*)cc2)cc1)OC1CCCCC1 (repeat unit)
glass transition temperature: 120.00 °C

*Oc1ccc(S(=O)(=O)c2ccc(Oc3cc(C)c(C(c4cc(C(C)C)c(*)cc4C)c4ccccc4C(=O)O)cc3C(C)C)cc2)cc1 (repeat unit)
glass transition temperature: 240.00 °C

*CC(*)(CC(=O)OCCOCCOCCOCCOCCOCCOCCOC)C(=O)OCCOCCOCCOCCOCCOCCOCCOC (repeat unit)
glass transition temperature: -40.50 °C

*c1ccc(-c2nc(-c3cccc(-c4nnc(-c5ccccc5)c(*)n4)n3)nnc2-c2ccccc2)cc1 (repeat unit)
glass transition temperature: 260.00 °C

*OC1CCCCC1OC(*)=O (repeat unit)
glass transition temperature: 117.30 °C

*Oc1cccc(OC(=O)c2ccc(C(C)(C)c3ccc(C(*)=O)cc3)cc2)c1 (repeat unit)
glass transition temperature: 158.00 °C

*C(*)C(=O)OC1CCCCC1 (repeat unit)
glass transition temperature: 140.00 °C

*CCCCCN1C(=O)c2ccc(C(c3ccc4c(c3)C(=O)N(*)C4=O)(C(F)(F)F)C(F)(F)F)cc2C1=O (repeat unit)
glass transition temperature: 180.00 °C

*c1ccc(Oc2ccc(N3C(=O)c4ccc(Oc5ccc(-c6ccc(Oc7ccc8c(c7)C(=O)N(*)C8=O)cc6)cc5)cc4C3=O)cc2)cc1 (repeat unit)
glass transition temperature: 229.00 °C

*OC(COC(=O)c1cccc(-c2ccc(C(*)=O)cc2)c1)COc1ccc(/N=N/c2ccc(C#N)cc2)cc1 (repeat unit)
glass transition temperature: 135.00 °C

*Nc1ccc(C2(c3ccc(NC(=O)c4cc(C(*)=O)cc(C(C)(C)C)c4)cc3)c3ccccc3-c3ccccc32)cc1 (repeat unit)
glass transition temperature: 284.00 °C

*CC(*)(CC(=O)OC1CCCCCC1)C(=O)OC1CCCCCC1 (repeat unit)
glass transition temperature: 105.00 °C

*OP(=O)(Oc1ccc(NC(=O)OCCCCCCOC(=O)Nc2ccc(*)cc2)cc1)c1ccccc1 (repeat unit)
glass transition temperature: -3.00 °C

*c1cccc(-c2cc(C(=O)Nc3ccc(OC(=O)c4cc(OCCCCCCCCCCCC)c(OCCCCCCCCCCCC)c(OCCCCCCCCCCCC)c4)cc3)cc(-c3cccc(N4C(=O)c5ccc(S(=O)(=O)c6ccc7c(c6)C(=O)N(*)C7=O)cc5C4=O)c3)c2)c1 (repeat unit)
glass transition temperature: 268.00 °C

*O[Si](*)(C)CCCOc1ccc(C(=O)Oc2ccc(C(=O)Oc3ccc(OC)cc3)cc2)cc1 (repeat unit)
glass transition temperature: 38.00 °C

*Oc1c(C)cc(C(C)(C)c2cc(C)c(OC(=O)CCCCC(*)=O)c(C)c2)cc1C (repeat unit)
glass transition temperature: 93.00 °C

*CC(*)(C)C(=O)OC1(C)CCCN(c2ccc(/N=N/c3ccc(/C=C(\C#N)S(C)(=O)=O)cc3)cc2)C1 (repeat unit)
glass transition temperature: 196.00 °C

*CCCC(=O)Nc1ccc(Oc2ccc(NC(=O)CCCN3C(=O)c4ccc(C(=O)c5ccc6c(c5)C(=O)N(*)C6=O)cc4C3=O)cc2)cc1 (repeat unit)
glass transition temperature: 198.00 °C

*O[Si](*)(C)CCCOc1ccc2c(c1)c1cc(-c3ccc4c(c3)c3ccccc3n4CC(CC)CCCC)ccc1n2CC(CC)CCCC (repeat unit)
glass transition temperature: 129.00 °C

*CCCCCCOC(=O)CCCCCCCCCCCCCCCCCCC(=O)OCCCCCCN1C(=O)c2ccc(S(=O)(=O)c3ccc4c(c3)C(=O)N(*)C4=O)cc2C1=O (repeat unit)
glass transition temperature: 19.00 °C

*Oc1ccc(S(=O)(=O)c2ccc(Oc3ccc(C4(c5ccc(*)cc5)CC5CCC4C5)cc3)cc2)cc1 (repeat unit)
glass transition temperature: 250.00 °C

*c1ccc(Oc2ccc(C(=O)c3cccc(C(=O)c4ccc(Oc5ccc(N6C(=O)c7ccc(Oc8ccc9c(c8)C(=O)N(*)C9=O)cc7C6=O)cc5)cc4)n3)cc2)cc1 (repeat unit)
glass transition temperature: 208.60 °C

*c1cc(Oc2c(C)cc(-c3cc(C)c(Oc4cc(N5C(=O)c6ccc(-c7ccc8c(c7)C(=O)N(*)C8=O)cc6C5=O)cc(C(F)(F)F)c4)c(C)c3)cc2C)cc(C(F)(F)F)c1 (repeat unit)
glass transition temperature: 281.10 °C

*OC(COC(=O)c1c(F)c(F)c(-c2c(F)c(F)c(C(*)=O)c(F)c2F)c(F)c1F)COc1ccc(/N=N/c2ccc(C#N)cc2)cc1 (repeat unit)
glass transition temperature: 112.00 °C

*CC(*)(C(=O)OC)c1ccccc1 (repeat unit)
glass transition temperature: 121.00 °C

*CC(*)(C)C(=O)OCc1ccc(OCCOCC)c(OCCOCC)c1 (repeat unit)
glass transition temperature: -2.00 °C

*c1ccc(OC(=O)c2cccc(C(=O)Oc3ccc(C4(*)C(=O)Nc5ccccc54)cc3)c2)cc1 (repeat unit)
glass transition temperature: 256.00 °C

*CCCCCC(*)CCC (repeat unit)
glass transition temperature: -68.00 °C
